# Values of other authors in patent US20160186266A1, “MOLECULAR PROFILING FOR PERSONALIZED MEDICINE” (CARIS LIFE SCIENCES, INC., priority 2009, published 2016).
# Experiments:
# [1] = system: platelet-derived growth factor receptor (PDGFR)
# c-Kit = c-Kit (Homo sapiens, UniProt P10721)
# c-Kit, sequence (P10721 26-976): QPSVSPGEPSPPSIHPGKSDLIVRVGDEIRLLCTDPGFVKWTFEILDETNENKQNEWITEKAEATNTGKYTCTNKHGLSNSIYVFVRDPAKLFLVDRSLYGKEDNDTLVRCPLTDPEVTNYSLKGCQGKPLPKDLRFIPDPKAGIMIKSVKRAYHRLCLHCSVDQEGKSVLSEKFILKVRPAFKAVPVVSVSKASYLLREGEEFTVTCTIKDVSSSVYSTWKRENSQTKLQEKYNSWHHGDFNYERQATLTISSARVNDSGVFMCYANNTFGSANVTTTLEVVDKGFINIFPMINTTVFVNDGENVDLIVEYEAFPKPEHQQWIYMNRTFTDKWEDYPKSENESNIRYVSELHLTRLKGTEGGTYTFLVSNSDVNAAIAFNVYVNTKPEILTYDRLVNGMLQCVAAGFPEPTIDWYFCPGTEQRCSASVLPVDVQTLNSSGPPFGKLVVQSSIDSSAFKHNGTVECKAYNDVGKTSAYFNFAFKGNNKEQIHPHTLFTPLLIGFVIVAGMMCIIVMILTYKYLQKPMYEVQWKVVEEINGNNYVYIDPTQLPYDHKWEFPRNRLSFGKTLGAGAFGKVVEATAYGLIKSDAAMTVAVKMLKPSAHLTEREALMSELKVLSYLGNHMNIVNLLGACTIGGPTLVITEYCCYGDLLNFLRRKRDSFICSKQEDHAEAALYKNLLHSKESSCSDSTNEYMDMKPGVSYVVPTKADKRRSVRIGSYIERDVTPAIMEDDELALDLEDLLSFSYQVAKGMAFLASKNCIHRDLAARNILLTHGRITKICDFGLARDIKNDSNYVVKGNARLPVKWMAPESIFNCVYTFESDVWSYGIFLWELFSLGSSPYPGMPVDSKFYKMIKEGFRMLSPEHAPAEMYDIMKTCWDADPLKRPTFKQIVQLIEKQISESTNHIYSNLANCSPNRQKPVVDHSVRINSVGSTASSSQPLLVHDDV
structure (smiles),measurement,setting,value
Cc1ccc(NC(=O)c2ccc(CN3CCN(C)CC3)cc2)cc1Nc1nccc(-c2cccnc2)n1 [Imatinib],effect on kinase activity,[1],block the activity
same,effect on kinase activity,c-Kit,block the activity
